Experimental findings from patent US20250213555A1, “SUBSTITUTED TETRAHYDROFURAN ANALOGS AS MODULATORS OF SODIUM CHANNELS” (VERTEX PHARMACEUTICALS INCORPORATED, priority 2021, published 2025) are described below.

pIC50: −log10 of the molar value. Where only a bound is given, the exact number is not on record here.

The target in one assay is human Nav 1.8 (Homo sapiens, UniProt Q9Y5Y9). The assay is described as follows: E-VIPR assay detecting and measuring Nav inhibition properties. The format is cell-based. As to conditions: HEK cells expressing a truncated form of human Nav 1.8; assay performed in the presence of human serum (compound numbers followed by "*"); read-out: measured IC50 value in the E-VIPR Assay. Summed up: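 Nav inhibition was read by E-VIPR: cells were electrically stimulated while coumarin/oxonol FRET emissions were recorded. Cells were HEK expressing a truncated human Nav 1.8 and co-transduced with KIR2.1, and were assayed in 25% final human serum.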
Sequence of human Nav 1.8 (Q9Y5Y9 126-399 limits assumed): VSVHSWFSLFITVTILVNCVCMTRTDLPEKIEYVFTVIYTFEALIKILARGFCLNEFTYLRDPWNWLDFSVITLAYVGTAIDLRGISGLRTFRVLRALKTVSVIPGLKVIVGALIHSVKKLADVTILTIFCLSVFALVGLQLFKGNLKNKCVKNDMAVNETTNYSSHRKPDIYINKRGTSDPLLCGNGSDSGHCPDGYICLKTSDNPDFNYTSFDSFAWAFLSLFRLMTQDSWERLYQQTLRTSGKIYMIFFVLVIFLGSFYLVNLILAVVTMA
Sequence of human Nav 1.8 (Q9Y5Y9 660-890 limits assumed): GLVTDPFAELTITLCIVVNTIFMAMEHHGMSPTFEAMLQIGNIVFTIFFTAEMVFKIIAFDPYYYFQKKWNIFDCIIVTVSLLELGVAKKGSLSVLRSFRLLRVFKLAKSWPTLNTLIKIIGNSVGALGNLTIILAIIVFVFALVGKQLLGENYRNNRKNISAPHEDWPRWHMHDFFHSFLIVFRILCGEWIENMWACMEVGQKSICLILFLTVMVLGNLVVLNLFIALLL
Sequence of human Nav 1.8 (Q9Y5Y9 1148-1722 limits assumed): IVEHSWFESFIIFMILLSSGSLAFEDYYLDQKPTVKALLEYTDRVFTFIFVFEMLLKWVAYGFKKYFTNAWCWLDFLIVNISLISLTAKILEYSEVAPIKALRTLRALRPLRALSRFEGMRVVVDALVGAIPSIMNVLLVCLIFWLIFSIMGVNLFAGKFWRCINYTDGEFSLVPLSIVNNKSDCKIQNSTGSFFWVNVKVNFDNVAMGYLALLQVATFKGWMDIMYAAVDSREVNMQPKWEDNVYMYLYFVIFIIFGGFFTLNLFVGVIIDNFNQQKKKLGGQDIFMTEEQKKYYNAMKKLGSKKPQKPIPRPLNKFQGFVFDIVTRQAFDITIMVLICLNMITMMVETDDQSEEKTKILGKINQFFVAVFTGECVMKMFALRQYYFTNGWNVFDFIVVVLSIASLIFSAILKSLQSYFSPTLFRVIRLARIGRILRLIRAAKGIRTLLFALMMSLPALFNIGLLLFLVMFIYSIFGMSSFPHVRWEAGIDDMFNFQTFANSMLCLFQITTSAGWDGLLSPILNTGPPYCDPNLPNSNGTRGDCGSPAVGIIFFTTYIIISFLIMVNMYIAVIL
In the case of `Cc1c(F)ccc([C@@H]2C[C@](C)(C(F)(F)F)O[C@H]2C(=O)Nc2ccnc(C(N)=O)c2)c1OCCO` (single isomer, unassigned) [Compound 37], the pIC50 (usually the negative decadic logarithm of the IC50, by convention in mol/L) is 6.00 to 7.00.

Staying with this assay, now noted: HEK cells expressing a truncated form of human Nav 1.8; compound numbers without "*" (not marked as run in the presence of human serum); read-out: measured IC50 value in the E-VIPR Assay.
Consider `C[C@H]1[C@@H](c2ccc(F)c(F)c2COC2COC2)[C@H](C(=O)Nc2ccnc(C(N)=O)c2)O[C@@]1(C)C(F)(F)F` [Compound 211, 4-((2R,3S,4S,5R)-3-(3,4-difluoro-2-((oxetan-3-yloxy)methyl)phenyl)-4,5-dimethyl-5-(trifluoromethyl)tetrahydrofuran-2-carboxamido) picolinamide], for which the pIC50 was over 8.00.
Regarding `COc1c([C@H]2[C@H](C(=O)Nc3ccnc(C(=O)N[C@H]4CCNC4)c3)O[C@@](C)(C(F)(F)F)[C@H]2C)ccc(F)c1F` [Compound 238, 4-((2R,3S,4S,5R)-3-(3,4-difluoro-2-methoxyphenyl)-4,5-dimethyl-5-(trifluoromethyl)tetrahydrofuran-2-carboxamido)-N-((S)-pyrrolidin-3-yl)picolinamide], the pIC50 is over 8.00.
For `COCc1c([C@H]2[C@H](C(=O)Nc3ccnc(C(N)=O)c3)O[C@@](C)(C(F)(F)F)[C@H]2C)ccc(F)c1F` (single isomer, unassigned) [Compound 147], the negative-log IC50 (pIC50) is over 8.00.
For `C[C@H]1[C@@H](c2ccc(F)c(F)c2OCCN2CC(OC(F)F)C2)[C@H](C(=O)Nc2ccnc(C(N)=O)c2)O[C@@]1(C)C(F)(F)F` [Compound 119, 4-((2R,3S,4S,5R)-3-(2-(2-(3-(difluoromethoxy)azetidin-1-yl)ethoxy)-3,4-difluorophenyl)-4,5-dimethyl-5-(trifluoromethyl)tetrahydrofuran-2-carboxamido)picolinamide], the pIC50 was over 8.00.
For the molecule `CC1CN(CCOc2c([C@H]3[C@H](C(=O)Nc4ccnc(C(N)=O)c4)O[C@@](C)(C(F)(F)F)[C@H]3C)ccc(F)c2F)CCO1` (stereo partly drawn) [Compound 51, 4-((2R,3S,4S,5R)-3-(3,4-difluoro-2-(2-(2-methylmorpholino)ethoxy)phenyl)-4,5-dimethyl-5-(trifluoromethyl)tetrahydrofuran-2-carboxamido)picolinamide], the pIC50 was over 8.00.
In the case of `COC[C@H]1CN(C(=O)c2cc(NC(=O)[C@@H]3O[C@@](C)(C(F)(F)F)[C@@H](C)[C@H]3c3ccc(F)c(F)c3OC)ccn2)CCN1C` [Compound 287, (2R,3S,4S,5R)-3-(3,4-difluoro-2-methoxyphenyl)-N-(2-((R)-3-(methoxymethyl)-4-methylpiperazine-1-carbonyl)pyridin-4-yl)-4,5-dimethyl-5-(trifluoromethyl)tetrahydrofuran-2-carboxamide], the pIC50 was over 8.00.
For the molecule `C[C@@H](COc1c([C@H]2[C@H](C(=O)Nc3ccnc(C(N)=O)c3)O[C@@](C)(C(F)(F)F)[C@H]2C)ccc(F)c1F)N1CC2(COC2)C1` [Compound 40, 4-((2R,3S,4S,5R)-3-(2-((S)-2-(2-oxa-6-azaspiro[3.3]heptan-6-yl)propoxy)-3,4-difluorophenyl)-4,5-dimethyl-5-(trifluoromethyl)tetrahydrofuran-2-carboxamido)picolinamide], the pIC50 is over 8.00.
Regarding `CNC(=O)c1cc(NC(=O)[C@@H]2O[C@@](C)(C(F)(F)F)[C@@H](C)[C@H]2c2ccc(F)c(F)c2OCCN2CC3(COC3)C2)ccn1` [Compound 136, 4-((2R,3S,4S,5R)-3-(2-(2-(2-oxa-6-azaspiro[3.3]heptan-6-yl)ethoxy)-3,4-difluorophenyl)-4,5-dimethyl-5-(trifluoromethyl)tetrahydrofuran-2-carboxamido)-N-methylpicolinamide], the negative-log IC50 (pIC50) was 7.00 to 8.00.
Regarding `COCc1c([C@H]2[C@H](C(=O)Nc3ccnc(C(N)=O)c3)O[C@@](C)(C(F)(F)F)[C@H]2C)ccc(F)c1F` (racemic) [Compound 145, rac-4-((2R,3S,4S,5R)-3-(3,4-difluoro-2-(methoxymethyl)phenyl)-4,5-dimethyl-5-(trifluoromethyl)tetrahydrofuran-2-carboxamido)picolinamide], the pIC50 was over 8.00.
Take `COc1c([C@H]2[C@H](C(=O)Nc3ccnc(C(=O)N4CCO[C@H]5CNC[C@H]54)c3)O[C@@](C)(C(F)(F)F)[C@H]2C)ccc(F)c1F` [Compound 243, (2R,3S,4S,5R)-3-(3,4-difluoro-2-methoxyphenyl)-4,5-dimethyl-N-(2-((4aR,7aS)-octahydropyrrolo[3,4-b][1,4]oxazine-4-carbonyl)pyridin-4-yl)-5-(trifluoromethyl)tetrahydrofuran-2-carboxamide]: the pIC50 was over 8.00.
Same read-out and setting: for `C[C@H]1[C@@H](c2ccc(F)c(F)c2OCCN2CC(C)(O)C2)[C@H](C(=O)Nc2ccnc(C(N)=O)c2)O[C@@]1(C)C(F)(F)F` [Compound 122, 4-((2R,3S,4S,5R)-3-(3,4-difluoro-2-(2-(3-hydroxy-3-methylazetidin-1-yl)ethoxy)phenyl)-4,5-dimethyl-5-(trifluoromethyl)tetrahydrofuran-2-carboxamido)picolinamide] the value was 7.00 to 8.00; for `COCC1(C)CC(c2ccc(F)c(F)c2OC)C(C(=O)Nc2ccnc(C(N)=O)c2)O1` (single isomer, unassigned) [Compound 29], at most 6.00.
Consider `COCCOc1c([C@H]2[C@H](C(=O)Nc3ccnc(C(N)=O)n3)O[C@@](C)(C(F)(F)F)[C@H]2C)ccc(F)c1C` (single isomer, unassigned) [Compound 3], for which the pIC50 is over 8.00.
Regarding `COc1c(C2C(C(=O)Nc3ccnc(C(=O)N4CCC(N(C)C)C4)c3)OC(C)(C(F)(F)F)C2C)ccc(F)c1F` (single isomer, unassigned) [Compound 265, rel-(2R*,3S,*4S*,5R*)-3-(3,4-difluoro-2-methoxyphenyl)-N-(2-(3-(dimethylamino)pyrrolidine-1-carbonyl)pyridin-4-yl)-4,5-dimethyl-5-(trifluoromethyl)tetrahydrofuran-2-carboxamide], the negative logarithm of the IC50 (pIC50) is over 8.00.
Take `C[C@H]1[C@@H](c2ccc(F)c(F)c2OCc2nccn2C)[C@H](C(=O)Nc2ccnc(C(N)=O)c2)O[C@@]1(C)C(F)(F)F` [Compound 61, 4-((2R,3S,4S,5R)-3-(3,4-difluoro-2-((1-methyl-1H-imidazol-2-yl)methoxy)phenyl)-4,5-dimethyl-5-(trifluoromethyl)tetrahydrofuran-2-carboxamido)picolinamide]: the negative-log IC50 (pIC50) was over 8.00.
Same read-out and setting: for `COc1c([C@H]2[C@H](C(=O)Nc3ccnc(C(=O)N4C[C@@H]5C[C@H]4CN5)c3)O[C@@](C)(C(F)(F)F)[C@H]2C)ccc(F)c1F` [Compound 240, (2R,3S,4S,5R)-N-(2-((1S,4S)-2,5-diazabicyclo[2.2.1]heptane-2-carbonyl)pyridin-4-yl)-3-(3,4-difluoro-2-methoxyphenyl)-4,5-dimethyl-5-(trifluoromethyl)tetrahydrofuran-2-carboxamide] the value was over 8.00.
Take `COc1c([C@H]2[C@H](C(=O)Nc3ccnc(C(=O)N4CC5(CCCN5C)C4)c3)O[C@@](C)(C(F)(F)F)[C@H]2C)ccc(F)c1F` [Compound 270, (2R,3S,4S,5R)-3-(3,4-difluoro-2-methoxyphenyl)-4,5-dimethyl-N-(2-(5-methyl-2,5-diazaspiro[3.4]octane-2-carbonyl)pyridin-4-yl)-5-(trifluoromethyl)tetrahydrofuran-2-carboxamide]: the negative-log IC50 (pIC50) is 7.00 to 8.00.
